One assay relates to PBM-R tumor cells. Kind of assay: Measurement of IC50 value in PBM-R tumor cells (CellTiter-Glo). It is filed as cell-based, mouse. The protocol: (§1) Tumor cells were seeded in 96-well plates at a density of 2000-3000/well and allowed to adhere overnight. Cells were then exposed to appropriate concentrations of therapeutic agents (or vehicle control) with continuous exposure for 72 h. Growth inhibition was measured by CellTiter-Glo® 2.0 Cell Viability Assay from Promega according to manufactory's introduction. IC50 values were calculated using non-linear regression model (logarithmic inhibitor vs. normalized response-variable slope) in Graphpad Prism 9.
On the technique in general: In ATP-based viability assays light output follows the ATP content of the culture.

In another assay the test system is PBM tumor cells. Kind of assay: Measurement of IC50 value in PBM tumor cells (CellTiter-Glo). It is filed as cell-based. Conditions: Mus musculus; reference value for the PBM-R3 fold; 72 h. The protocol: as §1
For the next assay, the system named is PBM tumors. Description: PBM ovarian tumor burden in syngeneic FVB/NJ mice. It is filed as in vivo, mouse. Conditions: olaparib 50 mg/kg i.p. 6 days a week; most tumors eventually progressed; FIG. 15B. The protocol: Tumor burden of PBM tumor-bearing mice treated with indicated agents was measured by bioluminescence (ROI, […]) after 2 weeks of treatment (control, n=6; olaparib, n=7, olaparib+MSA-2, n=4). Ordinary one-way ANOVA analysis. **, P<0.01; ***, P<0.001. The murine ovarian tumor model PBM used for this experiment was previously generated (Ding L, Kim H J, Wang Q, Kearns M, Jiang T, Ohlson C E, Li B B, Xie S, Liu J F, Stover E H, Howitt B E, Bronson R T, Lazo S, Roberts T M, Freeman G J, Konstantinopoulos P A, Matulonis U A, Zhao J J. PARP Inhibition Elicits STING-Dependent Antitumor Immunity in Brca1-Deficient Ovarian Cancer. Cell Rep. 2018 Dec. 11;25 (11): 2972-2980.e5. doi: 10.1016/j.celrep.2018.11.054. PMID: 30540933; PMCID: PMC6366450). About 2×10^5 PBM tumor cells were orthotopically transplanted into syngeneic FVB/NJ mice. Ten days after transplantation, Tumor-bearing mice were equivalently divided into control and treatment groups according to the luminescent intensity. Tumor burden of PBM tumor-bearing mice was measured by bioluminescence (ROI, […]). Olaparib (AZD2281) was administered daily by i.p. (intraperitoneal) injection at dose of 50 mg/kg body weight. […]
The PBM and PBM-R tumor cells were transplanted orthotopically into syngeneic FVB/NJ mice to generated tumors for drug evaluation. […] The endpoints were determined by tumor burden and ascites.

Molecules are shown by their SMILES. pIC50: −log10 of the molar value.

One may read the pIC50 as the IC50 on a negative log10 scale, so that one unit is a factor of ten. For the compound `O=C(c1cc(Cc2n[nH]c(=O)c3ccccc23)ccc1F)N1CCN(C(=O)C2CC2)CC1` [olaparib], the “IC50 values of 11 out of 12 PBM-R tumor lines” value with PBM-R tumor cells (11 out of 12 PBM-R lines sensitive in vitro, FIG. 15C) was “comparable to PBM tumor cells”. Further, the negative-log IC50 (pIC50) was 5.38 in the assay with PBM-R tumor cells (Mus musculus, PBM-R3 tumor cells, 72 h, FIG. 15C) and 6.25 in the assay with PBM tumor cells. In addition, the IC50 fold in the assay on PBM-R tumor cells (PBM-R3 IC50 relative to 0.56 μM) is on record as 7.48 folds. For the same compound, the PBM tumor response result in the assay with PBM tumors is given as “initial robust response”.

For the origin of these results see patent US20250009743A1, “METHODS OF TREATING CANCERS USING STING AGONISTS” (Dana-Farber Cancer Institute, Inc., priority 2021, published 2025).
